Reference: patent US7928140B2, “Benzothiazole PI3 kinase modulators for cancer treatment” (Amgen Inc., priority 2007, dated 2011)

Assays:
PI3K β = biological target: T1, PI3K β (Homo sapiens, UniProt P42338); experiment: In vitro PI3 kinase enzyme assay (beta), ATP loss, bioluminescence; format: biochemical; settings: read-out: PI3Kβ ATP loss IC50;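 also: purified p110β/p85 heterodimer with PtdIns(4,5)P2 as acceptor, incubated at room temperature, leftover ATP read by luminescence, inhibition scaled to compound-free wells with and without enzyme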
T1 construct: Full length p110 subunits of PI3K α, β and δ, N-terminally labeled with polyHis tag; polyHis (N); made in house; host or cells: Sf9 insect cells (baculovirus)
T1 sequence (P42338 whole entry): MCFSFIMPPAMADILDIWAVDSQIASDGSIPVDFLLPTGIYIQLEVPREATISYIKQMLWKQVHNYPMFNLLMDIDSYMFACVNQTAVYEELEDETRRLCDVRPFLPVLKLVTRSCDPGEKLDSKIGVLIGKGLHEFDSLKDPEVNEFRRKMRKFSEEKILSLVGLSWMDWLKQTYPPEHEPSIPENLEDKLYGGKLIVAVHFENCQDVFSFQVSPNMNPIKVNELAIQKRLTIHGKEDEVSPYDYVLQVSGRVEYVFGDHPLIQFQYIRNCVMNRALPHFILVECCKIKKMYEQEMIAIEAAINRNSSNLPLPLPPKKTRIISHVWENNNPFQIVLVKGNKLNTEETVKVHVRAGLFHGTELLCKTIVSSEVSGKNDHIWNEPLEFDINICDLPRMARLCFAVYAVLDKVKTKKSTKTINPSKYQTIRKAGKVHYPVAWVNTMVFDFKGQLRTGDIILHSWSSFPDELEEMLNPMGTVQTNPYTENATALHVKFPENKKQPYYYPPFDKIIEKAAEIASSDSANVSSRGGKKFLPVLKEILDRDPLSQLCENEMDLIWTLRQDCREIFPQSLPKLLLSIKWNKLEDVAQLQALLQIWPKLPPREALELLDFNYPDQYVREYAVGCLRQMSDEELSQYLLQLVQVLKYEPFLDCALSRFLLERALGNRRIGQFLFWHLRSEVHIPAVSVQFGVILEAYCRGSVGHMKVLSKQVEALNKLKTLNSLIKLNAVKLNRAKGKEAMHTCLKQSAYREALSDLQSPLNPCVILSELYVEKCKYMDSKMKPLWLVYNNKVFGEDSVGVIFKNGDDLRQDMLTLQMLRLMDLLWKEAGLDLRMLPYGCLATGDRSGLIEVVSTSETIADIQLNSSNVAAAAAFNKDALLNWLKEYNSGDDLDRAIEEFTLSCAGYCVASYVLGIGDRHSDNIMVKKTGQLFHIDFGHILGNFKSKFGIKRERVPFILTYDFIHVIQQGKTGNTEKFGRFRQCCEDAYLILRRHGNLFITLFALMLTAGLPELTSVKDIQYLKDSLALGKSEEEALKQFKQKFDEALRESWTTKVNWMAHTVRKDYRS
T1 sequence (P27986 whole entry partner): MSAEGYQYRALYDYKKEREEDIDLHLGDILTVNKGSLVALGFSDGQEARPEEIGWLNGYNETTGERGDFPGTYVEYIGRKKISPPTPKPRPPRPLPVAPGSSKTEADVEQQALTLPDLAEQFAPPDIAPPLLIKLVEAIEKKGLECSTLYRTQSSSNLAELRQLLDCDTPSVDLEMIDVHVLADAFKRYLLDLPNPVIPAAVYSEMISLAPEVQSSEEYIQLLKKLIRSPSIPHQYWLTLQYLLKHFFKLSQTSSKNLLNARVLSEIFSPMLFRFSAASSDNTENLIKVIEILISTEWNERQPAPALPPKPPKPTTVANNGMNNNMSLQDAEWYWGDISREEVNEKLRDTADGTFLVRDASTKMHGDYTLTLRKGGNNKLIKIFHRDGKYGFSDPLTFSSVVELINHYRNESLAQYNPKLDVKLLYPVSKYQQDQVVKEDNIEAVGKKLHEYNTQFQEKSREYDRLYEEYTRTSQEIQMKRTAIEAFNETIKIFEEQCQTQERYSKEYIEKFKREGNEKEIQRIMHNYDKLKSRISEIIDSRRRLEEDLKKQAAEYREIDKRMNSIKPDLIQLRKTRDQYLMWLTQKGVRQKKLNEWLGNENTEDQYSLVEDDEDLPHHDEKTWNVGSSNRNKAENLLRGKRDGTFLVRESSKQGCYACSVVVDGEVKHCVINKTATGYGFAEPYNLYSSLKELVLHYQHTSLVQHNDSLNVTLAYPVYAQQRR

[1] = tested on: phosphorylation of Serine 473 in Akt, HCT 116 human colon carcinoma cells; experiment: Cell-based phospho-AKT Ser473 assay (MSD sandwich immunoassay, IGF-1 stimulated); settings: Homo sapiens, HCT-116, HCT 116 cells; read-out: HCT 116 pAKT IC50
Outline: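 HCT116 cells, 16,000/well and plated overnight, were pre-treated with serially diluted compound for 2 h at 37 °C, then stimulated with IGF-1 at 100 ng/ml for 15 min. Lysates were assayed for Akt pSer473 by MSD sandwich electrochemiluminescence, and IC50 was derived from dose-response data.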

PI3K α = biological target: T2, PI3K α (Homo sapiens, UniProt P42336); experiment: In vitro PI3 kinase enzyme assay (alpha), ATP loss, bioluminescence; format: biochemical; settings: read-out: PI3Kα ATP loss IC50;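 also: purified p110α/p85 heterodimer acting on PtdIns(4,5)P2 at room temperature, remaining ATP read by luminescence, inhibition scaled between compound-free wells with and without enzyme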
T2 construct: Full length p110 subunits of PI3K α, β and δ, N-terminally labeled with polyHis tag; polyHis (N); made in house; host or cells: Sf9 insect cells (baculovirus)
T2 sequence (P42336 whole entry, species assumed): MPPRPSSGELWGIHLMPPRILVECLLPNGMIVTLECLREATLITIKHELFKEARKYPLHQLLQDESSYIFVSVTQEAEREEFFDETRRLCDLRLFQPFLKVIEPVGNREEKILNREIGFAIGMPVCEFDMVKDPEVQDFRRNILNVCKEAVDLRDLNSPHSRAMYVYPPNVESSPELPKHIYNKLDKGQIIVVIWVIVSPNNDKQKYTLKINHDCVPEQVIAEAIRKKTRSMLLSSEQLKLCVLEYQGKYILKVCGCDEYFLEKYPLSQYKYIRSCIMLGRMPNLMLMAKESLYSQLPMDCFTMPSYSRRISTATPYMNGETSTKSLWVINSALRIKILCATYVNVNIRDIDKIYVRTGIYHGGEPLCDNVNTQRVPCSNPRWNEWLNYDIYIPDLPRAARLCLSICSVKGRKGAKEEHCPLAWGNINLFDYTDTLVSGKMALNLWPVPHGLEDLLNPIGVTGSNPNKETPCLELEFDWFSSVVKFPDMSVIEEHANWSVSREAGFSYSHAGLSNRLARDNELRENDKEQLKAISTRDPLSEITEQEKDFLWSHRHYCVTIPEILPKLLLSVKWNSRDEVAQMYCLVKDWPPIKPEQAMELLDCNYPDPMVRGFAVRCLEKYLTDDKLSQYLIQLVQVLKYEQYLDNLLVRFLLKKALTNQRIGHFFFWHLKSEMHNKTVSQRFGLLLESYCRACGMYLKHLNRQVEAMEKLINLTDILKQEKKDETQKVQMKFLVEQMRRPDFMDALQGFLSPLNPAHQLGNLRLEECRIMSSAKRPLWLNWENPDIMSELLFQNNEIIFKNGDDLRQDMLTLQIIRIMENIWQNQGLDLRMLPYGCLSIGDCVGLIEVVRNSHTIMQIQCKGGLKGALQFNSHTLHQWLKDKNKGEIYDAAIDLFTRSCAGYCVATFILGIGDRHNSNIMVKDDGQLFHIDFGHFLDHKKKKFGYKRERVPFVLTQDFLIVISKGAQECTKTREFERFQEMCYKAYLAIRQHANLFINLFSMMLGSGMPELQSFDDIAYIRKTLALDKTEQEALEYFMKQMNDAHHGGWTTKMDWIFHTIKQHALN
T2 sequence (P27986 whole entry partner, species assumed): as the sequence (P27986 whole entry partner) above

Structure (SMILES)	IC50 (PI3K β)	IC50 [1]	IC50 (PI3K α)
CC(=O)Nc1nc2ccc(-c3cncc(OCc4ccccc4)n3)cc2s1 [Example 135, N-(6-(6-(benzyloxy)-2-pyrazinyl)-1,3-benzothiazol-2-yl)acetamide]	219 nM	1970 nM	54.2 nM
Cc1ccc(S(=O)(=O)Nc2nnc(-c3ccc4nc(NC(=O)OC(C)(C)C)sc4c3)o2)cc1 [Example 166, tert-Butyl 6-(5-(4-methylphenylsulfonamido)-1,3,4-oxadiazol-2-yl)benzo[d]thiazol-2-ylcarbamate]	2200 nM	239 nM	336 nM
CNc1ncc(-c2ccc3nc(NC(C)=O)sc3c2)cc1NC(C)C [Example 147, N-(6-(5-(isopropylamino)-6-(methylamino)pyridin-3-yl)benzo[d]thiazol-2-yl)acetamide]	5680 nM	440 nM	149 nM
COc1ccc(Sc2nccc(-c3ccc4nc(NC(C)=O)sc4c3)n2)cc1 [Example 16, N-(6-(2-(4-Methoxyphenylthio)pyrimidin-4-yl)benzo[d]thiazol-2-yl)acetamide]	106 nM	825 nM	53.5 nM
COc1ccc(Sc2ncc(-c3ccc4nc(NC(C)=O)sc4c3)s2)cc1 [Example 62, N-(6-(2-(4-methoxyphenylthio)thiazol-5-yl)benzo[d]thiazol-2-yl)acetamide]	5210 nM	2580 nM	29.9 nM
COc1cccc(COc2nccc(-c3ccc4nc(NC(C)=O)sc4c3)n2)c1 [Example 108, N-(6-(2-((3-methoxybenzyl)oxy)-4-pyrimidinyl)-1,3-benzothiazol-2-yl)acetamide]	292 nM	682 nM	96.7 nM
CNc1nc2ccc(-c3cnc(Cl)c(NS(=O)(=O)c4ccccc4F)c3)cc2s1 [Example 320, N-(2-chloro-5-(2-(methylamino)-1,3-benzothiazol-6-yl)-3-pyridinyl)-2-fluorobenzenesulfonamide]	61.8 nM	448 nM	14.6 nM
CC(=O)Nc1nc2ccc(-c3cnc(C#N)c(N)c3)cc2s1 [Example 268, N-(6-(5-amino-6-cyanopyridin-3-yl)benzo[d]thiazol-2-yl)acetamide]	17000 nM	842 nM	241 nM
COCC(=O)Nc1nc2ccc(-c3cnc(Cl)c(NC(C)C)c3)cc2s1 [Example 144, N-(6-(6-chloro-5-((1-methylethyl)amino)-3-pyridinyl)-1,3-benzothiazol-2-yl)-2-methoxyacetamide]	1570 nM	723 nM	112 nM
CC(=O)Nc1nc2ccc(-c3ccnc(OCc4ccc(C)cc4)n3)cc2s1 [Example 106, N-(6-(2-((4-methylbenzyl)oxy)-4-pyrimidinyl)-1,3-benzothiazol-2-yl)acetamide]	1240 nM	2530 nM	220 nM
CC(=O)Nc1nc2ccc(-c3ccnc(N(C)S(=O)(=O)c4ccc(C)c(C)c4)n3)cc2s1 [Example 210, N-(6-(2-(N,3,4-trimethylphenylsulfonamido)pyrimidin-4-yl)benzo[d]thiazol-2-yl)acetamide]	39.1 nM	59.3 nM	14.7 nM
COc1ccc(S(=O)(=O)c2cccc(-c3cc(F)c4nc(NC(C)=O)sc4c3)n2)cc1 [Example 148, N-(4-fluoro-6-(6-((4-methoxyphenyl)sulfonyl)-2-pyridinyl)-1,3-benzothiazol-2-yl)acetamide]	1360 nM	881 nM	151 nM
CC(=O)Nc1nc2ccc(-c3ccnc(Sc4ccccc4Cl)n3)cc2s1 [Example 125, N-(6-(2-((2-chlorophenyl)sulfanyl)-4-pyrimidinyl)-1,3-benzothiazol-2-yl)acetamide]	425 nM	548 nM	25.4 nM
CC(=O)Nc1nc2ccc(-c3cncc(S(=O)(=O)c4ccccc4F)n3)cc2s1 [Example 121, N-(6-(6-((2-fluorophenyl)sulfonyl)-2-pyrazinyl)-1,3-benzothiazol-2-yl)acetamide]	496 nM	190 nM	19.1 nM
CC(=O)Nc1nc2ccc(-c3cncc(N(C)S(=O)(=O)c4ccc(F)c(F)c4)c3)cc2s1 [Example 222, N-(6-(5-(3,4-difluoro-N-methylphenylsulfonamido)pyridin-3-yl)benzo[d]thiazol-2-yl)acetamide]	2890 nM	2180 nM	377 nM
CC(=O)Nc1nc2ccc(-c3cnc(Cl)c(NS(=O)(=O)C(C)C)c3)cc2s1 [Example 179, N-(6-(6-chloro-5-(propan-2-ylsulfonamido)pyridin-3-yl)benzo[d]thiazol-2-yl)acetamide]	30.7 nM	29.4 nM	12.7 nM
CC(=O)Nc1nc2ccc(-c3ccnc(O[C@H](C)c4ccccc4)n3)cc2s1 [Example 43, N-(6-(2-((1R)-1-phenylethoxy)-4-pyrimidinyl)-1,3-benzothiazol-2-yl)acetamide]	517 nM	1060 nM	104 nM
CC(=O)Nc1nc2ccc(-c3cncc(N(C)S(=O)(=O)c4ccc(C)cc4)n3)cc2s1 [Example 127, N-(6-(6-(methyl((4-methylphenyl)sulfonyl)amino)-2-pyrazinyl)-1,3-benzothiazol-2-yl)acetamide]	31.6 nM	58.1 nM	27.8 nM
CC(=O)Nc1nc2ccc(-c3ccnc(NS(=O)(=O)c4ccccc4)n3)cc2s1 [Example 77, N-(6-(2-(Phenylsulfonamido)pyrimidin-4-yl)benzo[d]thiazol-2-yl)acetamide]	543 nM	2350 nM	84.8 nM
Nc1nc2ccc(-c3cnc(Cl)c(NS(=O)(=O)c4ccc(F)cc4F)c3)cc2s1 [Example 311, N-(5-(2-amino-1,3-benzothiazol-6-yl)-2-chloro-3-pyridinyl)-2,4-difluorobenzenesulfonamide]	49.1 nM	222 nM	17.1 nM
COc1ncc(-c2ccc3nc(NC(C)=O)sc3c2)cc1N(C)C [Example 124, N-(6-(5-(dimethylamino)-6-methoxy-3-pyridinyl)-1,3-benzothiazol-2-yl)acetamide]	90.8 nM	66.6 nM	24.7 nM

Compounds with a lower IC50 (PI3K β), results first:

IC50 (PI3K β)	IC50 [1]	IC50 (PI3K α)	Structure (SMILES)
25.4 nM	110 nM	6.9 nM	CC(=O)Nc1nc2ccc(-c3cnc(Cl)c(NS(=O)(=O)Cc4ccccc4)c3)cc2s1 [Example 188, N-(6-(6-chloro-5-(phenylmethylsulfonamido)pyridin-3-yl)benzo[d]thiazol-2-yl)acetamide]
25.4 nM	558 nM	10.8 nM	CNc1nc2ccc(-c3cnc(Cl)c(NS(=O)(=O)c4ccc(C(C)(C)NC(C)=O)cc4)c3)cc2s1 [Example 322, N-(1-(4-((2-chloro-5-(2-(methylamino)-1,3-benzothiazol-6-yl)-3-pyridinyl)sulfamoyl)phenyl)-1-methylethyl)acetamide]
22.2 nM	672 nM	12 nM	CNc1nc2ccc(-c3cnc(Cl)c(NS(=O)(=O)c4ccc(C(C)=O)cc4)c3)cc2s1 [Example 321, 4-acetyl-N-(2-chloro-5-(2-(methylamino)-1,3-benzothiazol-6-yl)-3-pyridinyl)benzenesulfonamide]
20.6 nM	468 nM	18 nM	CC(=O)c1ccc(S(=O)(=O)Nc2cc(-c3ccc4nc(N)sc4c3)cnc2Cl)cc1 [Example 325, 4-acetyl-N-(5-(2-amino-1,3-benzothiazol-6-yl)-2-chloro-3-pyridinyl)benzenesulfonamide]
17.4 nM	402 nM	7.6 nM	Nc1nc2ccc(-c3cnc(Cl)c(NS(=O)(=O)c4ccc(Cl)cc4Cl)c3)cc2s1 [Example 310, N-(5-(2-amino-1,3-benzothiazol-6-yl)-2-chloro-3-pyridinyl)-2,4-dichlorobenzenesulfonamide]
12.4 nM	18.2 nM	10.3 nM	CC(=O)Nc1nc2ccc(-c3cnc(Cl)c(NS(=O)(=O)c4cc(F)cc(F)c4)c3)cc2s1 [Example 176, N-(6-(6-chloro-5-(3,5-difluorophenylsulfonamido)pyridin-3-yl)benzo[d]thiazol-2-yl)acetamide]
12.3 nM	15.5 nM	7.2 nM	CC(=O)Nc1nc2ccc(-c3cnc(Cl)c(NS(=O)(=O)c4ccc(O)cc4)c3)cc2s1 [Example 174, N-(6-(6-chloro-5-(4-hydroxyphenylsulfonamido)pyridin-3-yl)benzo[d]thiazol-2-yl)acetamide]
12.2 nM	6.5 nM	7.2 nM	CC(=O)Nc1nc2ccc(-c3cnc(Cl)c(NS(=O)(=O)c4cccc(OC(F)F)c4)c3)cc2s1 [Example 184, N-(6-(6-chloro-5-(3-(difluoromethoxy)phenylsulfonamido)pyridin-3-yl)benzo[d]thiazol-2-yl)acetamide]
10.3 nM	75 nM	3.8 nM	CC(=O)Nc1nc2ccc(-c3cncc(NS(=O)(=O)c4cccc(F)c4)c3)cc2s1 [Example 199, N-(6-(5-(3-fluorophenylsulfonamido)pyridin-3-yl)benzo[d]thiazol-2-yl)acetamide]
5.4 nM	11.7 nM	3.2 nM	CC(=O)Nc1nc2ccc(-c3cnc(Cl)c(NS(=O)(=O)c4cc(Cl)cc(Cl)c4)c3)cc2s1 [Example 175, N-(6-(6-chloro-5-(3,5-dichlorophenylsulfonamido)pyridin-3-yl)benzo[d]thiazol-2-yl)acetamide]
